Source: ChEMBL document CHEMBL4028801, “A multifactorial approach to hepatobiliary transporter assessment enables improved therapeutic compound development” (Toxicol Sci, 2013)

Assays:
[1] = molecular target: T1, ATP-binding cassette sub-family C member 4 (Homo sapiens, UniProt O15439); experiment: Inhibition of human MRP4 overexpressed in Sf9 cell membrane vesicles assessed as uptake of [3H]-estradiol-17beta-D-glucuronide in presence of ATP and GSH measured after 20 mins by membrane vesicle transport assay; assay type: ADME, cell-based
T1 sequence (O15439 whole entry): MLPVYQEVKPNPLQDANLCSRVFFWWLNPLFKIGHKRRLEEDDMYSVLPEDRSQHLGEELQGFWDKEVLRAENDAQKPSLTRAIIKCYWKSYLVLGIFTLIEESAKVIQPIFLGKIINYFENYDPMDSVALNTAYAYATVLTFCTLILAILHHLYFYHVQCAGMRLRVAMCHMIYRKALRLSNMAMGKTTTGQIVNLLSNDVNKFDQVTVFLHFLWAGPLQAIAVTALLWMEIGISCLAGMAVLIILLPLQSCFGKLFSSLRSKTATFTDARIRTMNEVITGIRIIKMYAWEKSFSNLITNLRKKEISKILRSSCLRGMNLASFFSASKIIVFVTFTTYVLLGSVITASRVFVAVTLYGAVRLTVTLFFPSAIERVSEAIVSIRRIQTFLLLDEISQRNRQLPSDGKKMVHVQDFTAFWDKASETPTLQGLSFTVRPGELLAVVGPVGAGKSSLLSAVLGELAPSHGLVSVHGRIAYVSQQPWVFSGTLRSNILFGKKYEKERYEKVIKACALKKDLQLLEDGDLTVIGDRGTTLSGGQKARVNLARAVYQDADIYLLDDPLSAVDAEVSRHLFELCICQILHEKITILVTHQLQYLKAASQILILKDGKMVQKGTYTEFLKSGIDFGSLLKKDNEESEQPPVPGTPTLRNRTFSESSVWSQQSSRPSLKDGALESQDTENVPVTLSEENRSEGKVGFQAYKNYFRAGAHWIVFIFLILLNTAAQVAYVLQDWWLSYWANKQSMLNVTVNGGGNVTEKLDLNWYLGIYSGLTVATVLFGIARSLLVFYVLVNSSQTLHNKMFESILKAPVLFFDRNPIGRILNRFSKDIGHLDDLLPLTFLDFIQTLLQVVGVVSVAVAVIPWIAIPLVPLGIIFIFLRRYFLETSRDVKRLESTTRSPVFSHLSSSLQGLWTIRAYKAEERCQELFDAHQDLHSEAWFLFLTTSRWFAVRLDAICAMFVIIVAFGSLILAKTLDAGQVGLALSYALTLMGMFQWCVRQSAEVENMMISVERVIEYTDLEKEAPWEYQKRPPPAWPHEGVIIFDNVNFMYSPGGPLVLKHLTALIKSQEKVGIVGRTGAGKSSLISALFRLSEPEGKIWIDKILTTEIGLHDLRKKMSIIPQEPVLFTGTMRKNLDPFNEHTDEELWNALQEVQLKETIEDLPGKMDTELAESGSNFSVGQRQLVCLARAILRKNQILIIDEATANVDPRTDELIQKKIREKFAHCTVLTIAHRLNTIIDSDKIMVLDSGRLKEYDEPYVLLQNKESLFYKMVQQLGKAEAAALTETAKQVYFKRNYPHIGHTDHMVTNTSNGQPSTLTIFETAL

[2] = molecular target: ATP-binding cassette sub-family C member 3 (Homo sapiens, UniProt O15438); experiment: Inhibition of human MRP3 overexpressed in Sf9 insect cell membrane vesicles assessed as uptake of [3H]-estradiol-17beta-D-glucuronide in presence of ATP and GSH measured after 10 mins by membrane vesicle transport assay; assay type: ADME, cell-based
ATP-binding cassette sub-family C member 3, sequence (O15438 whole entry): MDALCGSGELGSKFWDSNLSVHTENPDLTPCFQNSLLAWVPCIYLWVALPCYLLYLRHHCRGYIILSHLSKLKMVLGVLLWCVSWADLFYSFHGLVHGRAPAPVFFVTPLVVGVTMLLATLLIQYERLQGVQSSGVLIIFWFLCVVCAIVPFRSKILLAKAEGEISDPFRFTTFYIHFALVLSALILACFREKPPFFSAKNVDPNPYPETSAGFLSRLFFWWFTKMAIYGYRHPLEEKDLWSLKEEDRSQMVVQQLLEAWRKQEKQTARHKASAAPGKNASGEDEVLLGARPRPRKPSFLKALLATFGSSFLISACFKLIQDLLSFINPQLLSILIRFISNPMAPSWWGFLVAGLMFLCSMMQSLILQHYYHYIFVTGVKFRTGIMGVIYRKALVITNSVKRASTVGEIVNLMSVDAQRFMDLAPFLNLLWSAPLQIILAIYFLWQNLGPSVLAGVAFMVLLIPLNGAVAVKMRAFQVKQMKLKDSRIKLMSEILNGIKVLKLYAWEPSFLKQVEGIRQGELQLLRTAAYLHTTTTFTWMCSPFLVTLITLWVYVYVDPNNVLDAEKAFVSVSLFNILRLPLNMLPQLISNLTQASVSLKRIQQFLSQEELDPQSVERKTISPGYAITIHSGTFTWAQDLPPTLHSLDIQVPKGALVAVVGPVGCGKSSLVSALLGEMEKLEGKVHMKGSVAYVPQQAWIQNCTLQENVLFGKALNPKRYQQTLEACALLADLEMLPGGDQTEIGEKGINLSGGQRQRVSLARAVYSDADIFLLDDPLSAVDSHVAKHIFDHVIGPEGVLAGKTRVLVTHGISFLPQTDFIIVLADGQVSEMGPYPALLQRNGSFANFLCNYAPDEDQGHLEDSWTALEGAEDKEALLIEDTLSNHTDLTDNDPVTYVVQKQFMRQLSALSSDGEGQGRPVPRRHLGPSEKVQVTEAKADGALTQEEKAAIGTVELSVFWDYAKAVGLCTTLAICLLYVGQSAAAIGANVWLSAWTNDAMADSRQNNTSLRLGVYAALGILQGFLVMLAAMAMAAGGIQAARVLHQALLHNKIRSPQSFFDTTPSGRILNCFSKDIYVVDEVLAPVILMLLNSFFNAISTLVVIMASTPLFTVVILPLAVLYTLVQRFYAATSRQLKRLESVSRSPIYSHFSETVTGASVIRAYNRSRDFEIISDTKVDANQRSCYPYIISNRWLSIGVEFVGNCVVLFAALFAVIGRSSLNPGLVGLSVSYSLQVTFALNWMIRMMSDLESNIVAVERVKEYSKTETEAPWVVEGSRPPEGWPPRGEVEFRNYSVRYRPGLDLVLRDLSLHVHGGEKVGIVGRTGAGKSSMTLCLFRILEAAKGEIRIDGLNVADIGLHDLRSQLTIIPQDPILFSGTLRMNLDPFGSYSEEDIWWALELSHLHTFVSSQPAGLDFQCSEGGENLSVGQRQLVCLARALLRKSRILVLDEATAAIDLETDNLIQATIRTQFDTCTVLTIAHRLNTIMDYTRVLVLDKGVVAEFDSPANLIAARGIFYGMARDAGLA

[3] = molecular target: ATP-binding cassette sub-family C member 2 (Homo sapiens, UniProt Q92887); experiment: Inhibition of human MRP2 overexpressed in Sf9 cell membrane vesicles assessed as uptake of [3H]-estradiol-17beta-D-glucuronide in presence of ATP and GSH measured after 20 mins by membrane vesicle transport assay
ATP-binding cassette sub-family C member 2, sequence (Q92887 whole entry): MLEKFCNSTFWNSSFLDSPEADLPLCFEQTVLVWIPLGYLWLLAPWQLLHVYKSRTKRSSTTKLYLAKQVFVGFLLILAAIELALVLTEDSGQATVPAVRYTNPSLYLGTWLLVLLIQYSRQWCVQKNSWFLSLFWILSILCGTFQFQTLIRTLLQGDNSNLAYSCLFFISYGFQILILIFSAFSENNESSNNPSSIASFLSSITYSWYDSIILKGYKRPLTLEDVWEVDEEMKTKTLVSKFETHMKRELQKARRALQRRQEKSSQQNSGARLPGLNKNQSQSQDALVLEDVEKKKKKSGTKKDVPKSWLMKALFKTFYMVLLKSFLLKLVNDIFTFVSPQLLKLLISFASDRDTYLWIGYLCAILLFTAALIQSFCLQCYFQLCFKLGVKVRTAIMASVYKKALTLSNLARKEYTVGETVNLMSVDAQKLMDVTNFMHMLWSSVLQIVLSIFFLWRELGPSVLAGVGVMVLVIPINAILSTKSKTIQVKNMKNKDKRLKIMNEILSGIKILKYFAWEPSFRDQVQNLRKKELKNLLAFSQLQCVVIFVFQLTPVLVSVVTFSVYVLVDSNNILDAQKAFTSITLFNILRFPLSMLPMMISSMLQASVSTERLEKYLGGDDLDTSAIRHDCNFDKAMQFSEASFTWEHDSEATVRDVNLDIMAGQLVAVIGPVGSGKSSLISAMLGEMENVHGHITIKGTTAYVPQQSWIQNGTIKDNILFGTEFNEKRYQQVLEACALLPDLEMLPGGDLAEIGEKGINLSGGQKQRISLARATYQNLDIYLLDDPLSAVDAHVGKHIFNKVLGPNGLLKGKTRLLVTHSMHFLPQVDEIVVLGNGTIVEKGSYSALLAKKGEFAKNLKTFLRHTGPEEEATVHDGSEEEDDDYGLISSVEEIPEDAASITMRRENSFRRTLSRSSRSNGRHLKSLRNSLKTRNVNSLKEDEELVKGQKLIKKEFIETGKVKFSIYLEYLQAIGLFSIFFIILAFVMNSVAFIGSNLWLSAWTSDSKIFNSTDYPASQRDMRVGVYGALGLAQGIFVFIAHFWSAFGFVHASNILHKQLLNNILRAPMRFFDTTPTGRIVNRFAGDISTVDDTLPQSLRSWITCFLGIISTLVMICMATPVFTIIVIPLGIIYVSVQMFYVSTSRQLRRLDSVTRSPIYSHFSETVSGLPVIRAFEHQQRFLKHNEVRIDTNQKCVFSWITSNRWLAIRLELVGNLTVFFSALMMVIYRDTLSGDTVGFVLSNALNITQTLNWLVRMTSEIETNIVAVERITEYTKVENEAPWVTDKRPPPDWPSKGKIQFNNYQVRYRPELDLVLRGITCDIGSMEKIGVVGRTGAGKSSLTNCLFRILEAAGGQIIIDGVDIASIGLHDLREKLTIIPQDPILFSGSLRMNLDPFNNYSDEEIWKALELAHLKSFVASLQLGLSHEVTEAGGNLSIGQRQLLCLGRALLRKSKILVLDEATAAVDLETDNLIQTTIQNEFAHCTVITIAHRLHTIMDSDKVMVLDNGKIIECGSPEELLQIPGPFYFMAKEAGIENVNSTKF

Bile salt export pump = Bile salt export pump (Homo sapiens, UniProt O95342); experiment: Inhibition of human BSEP overexpressed in Sf9 cell membrane vesicles assessed as uptake of [3H]-taurocholate in presence of ATP measured after 15 to 20 mins by membrane vesicle transport assay; assay type: ADME, cell-based
Bile salt export pump, sequence (O95342 whole entry): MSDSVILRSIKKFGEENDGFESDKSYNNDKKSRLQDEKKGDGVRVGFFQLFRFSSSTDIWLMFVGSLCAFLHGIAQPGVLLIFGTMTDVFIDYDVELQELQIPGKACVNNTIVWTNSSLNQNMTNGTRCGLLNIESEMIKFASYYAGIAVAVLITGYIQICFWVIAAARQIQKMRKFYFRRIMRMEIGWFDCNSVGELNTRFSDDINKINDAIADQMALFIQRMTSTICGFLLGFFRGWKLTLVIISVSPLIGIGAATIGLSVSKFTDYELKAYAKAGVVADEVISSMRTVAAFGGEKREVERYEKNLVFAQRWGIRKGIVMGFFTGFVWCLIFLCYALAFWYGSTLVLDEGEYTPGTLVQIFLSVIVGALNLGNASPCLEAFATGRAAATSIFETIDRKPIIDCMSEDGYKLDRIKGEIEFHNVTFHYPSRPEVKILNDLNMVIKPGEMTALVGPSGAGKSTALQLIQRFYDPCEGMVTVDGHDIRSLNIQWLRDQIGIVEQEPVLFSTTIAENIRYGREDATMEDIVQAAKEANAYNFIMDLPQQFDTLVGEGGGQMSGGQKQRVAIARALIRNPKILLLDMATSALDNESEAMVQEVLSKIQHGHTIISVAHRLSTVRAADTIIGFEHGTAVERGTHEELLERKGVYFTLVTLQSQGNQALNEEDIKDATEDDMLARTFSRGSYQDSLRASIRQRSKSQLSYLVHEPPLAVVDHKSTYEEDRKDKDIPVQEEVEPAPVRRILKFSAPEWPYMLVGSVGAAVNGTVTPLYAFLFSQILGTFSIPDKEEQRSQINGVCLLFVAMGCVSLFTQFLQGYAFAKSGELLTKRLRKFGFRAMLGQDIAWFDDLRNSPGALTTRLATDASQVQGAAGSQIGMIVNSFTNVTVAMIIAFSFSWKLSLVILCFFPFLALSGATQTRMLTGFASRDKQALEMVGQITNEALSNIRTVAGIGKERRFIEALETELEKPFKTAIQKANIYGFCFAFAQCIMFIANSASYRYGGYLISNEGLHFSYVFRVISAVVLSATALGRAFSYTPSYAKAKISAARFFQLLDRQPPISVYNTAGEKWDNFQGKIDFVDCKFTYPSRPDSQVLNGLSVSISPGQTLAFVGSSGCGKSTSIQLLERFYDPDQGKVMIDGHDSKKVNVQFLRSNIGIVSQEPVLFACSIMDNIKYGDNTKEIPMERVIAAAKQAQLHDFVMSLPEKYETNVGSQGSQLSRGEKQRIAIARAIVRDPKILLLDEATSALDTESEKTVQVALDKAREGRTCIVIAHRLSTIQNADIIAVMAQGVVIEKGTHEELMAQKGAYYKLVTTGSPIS

## N=C(N)c1ccc(OCCCCCOc2ccc(C(=N)N)cc2)cc1 [PENTAMIDINE]
[1]
  IC50: > 133 µM
[2]
  IC50: > 133 µM
[3]
  IC50: > 133 µM
Bile salt export pump
  IC50: > 133 µM

## C[C@@H](O)[C@H]1C(=O)N2C(C(=O)O)=C(S[C@@H]3CN[C@H](C(=O)N(C)C)C3)[C@H](C)[C@H]12 [MEROPENEM]
[1]
  IC50: > 133 µM
[2]
  IC50: > 133 µM
[3]
  IC50: > 133 µM
Bile salt export pump
  IC50: > 133 µM

## N[C@@H](Cc1ccc(O)c(O)c1)C(=O)O [LEVODOPA]
[1]
  IC50: > 133 µM
[2]
  IC50: > 133 µM
[3]
  IC50: > 133 µM
Bile salt export pump
  IC50: > 133 µM

## O=C(Cn1ccnc1[N+](=O)[O-])NCc1ccccc1 [BENZNIDAZOLE]
[1]
  IC50: > 133 µM
[2]
  IC50: > 133 µM
[3]
  IC50: > 133 µM
Bile salt export pump
  IC50: > 133 µM

## CCOC(=O)[C@H](CCc1ccccc1)N[C@@H](C)C(=O)N1[C@H](C(=O)O)C[C@@H]2CCC[C@@H]21
[1]
  IC50: > 133 µM
[2]
  IC50: > 133 µM
[3]
  IC50: > 133 µM
Bile salt export pump
  IC50: > 133 µM

## CCCN(CCC)S(=O)(=O)c1ccc(C(=O)O)cc1 [PROBENECID]
[1]
  IC50: > 133 µM
[2]
  IC50: > 133 µM
[3]
  IC50: > 133 µM
Bile salt export pump
  IC50: > 133 µM

## Nc1nc(=O)n([C@@H]2CS[C@H](CO)O2)cc1F [EMTRICITABINE]
[1]
  IC50: > 133 µM
[2]
  IC50: > 133 µM
[3]
  IC50: > 133 µM
Bile salt export pump
  IC50: > 133 µM

## Nc1nc2c(c(=O)[nH]1)N(C=O)C(CNc1ccc(C(=O)N[C@@H](CCC(=O)O)C(=O)O)cc1)CN2 (some centres undefined) [LEUCOVORIN CALCIUM]
[1]
  IC50: > 133 µM
[2]
  IC50: > 133 µM
[3]
  IC50: > 133 µM
Bile salt export pump
  IC50: > 133 µM

## NC[C@H]1O[C@H](O[C@H]2[C@H](O)[C@@H](O[C@H]3O[C@H](CO)[C@@H](O)[C@H](N)[C@H]3O)[C@H](N)C[C@@H]2N)[C@H](O)[C@@H](O)[C@@H]1O [KANAMYCIN]
[1]
  IC50: > 133 µM
[2]
  IC50: > 133 µM
[3]
  IC50: > 133 µM
Bile salt export pump
  IC50: > 133 µM

## N[C@@H](CC(=O)N1CCn2c(nnc2C(F)(F)F)C1)Cc1cc(F)c(F)cc1F [SITAGLIPTIN]
[1]
  IC50: > 133 µM
[2]
  IC50: > 133 µM
[3]
  IC50: > 133 µM
Bile salt export pump
  IC50: > 133 µM

## Cc1cc(=O)n(-c2ccccc2)n1C [ANTIPYRINE]
[1]
  IC50: > 133 µM
[2]
  IC50: > 133 µM
[3]
  IC50: > 133 µM
Bile salt export pump
  IC50: > 133 µM

## O=C1OC(OC(=O)c2cccnc2Nc2cccc(C(F)(F)F)c2)c2ccccc21 (centres undefined) [TALNIFLUMATE]
[1]
  IC50: > 133 µM
[2]
  IC50: > 133 µM
[3]
  IC50: > 133 µM
Bile salt export pump
  IC50: > 133 µM

## CCCN[C@H]1CCc2nc(N)sc2C1 [PRAMIPEXOLE]
[1]
  IC50: > 133 µM
[2]
  IC50: > 133 µM
[3]
  IC50: > 133 µM
Bile salt export pump
  IC50: > 133 µM

## CC(C(=O)O)c1ccc2c(c1)Cc1cccnc1O2 (centres undefined) [PRANOPROFEN]
[1]
  IC50: 9.8 µM
[2]
  IC50: > 133 µM
[3]
  IC50: > 133 µM
Bile salt export pump
  IC50: > 133 µM

## CC1CCN(CCCC(=O)c2ccc(F)cc2)CC1 [MELPERONE]
[1]
  IC50: > 133 µM
[2]
  IC50: > 133 µM
[3]
  IC50: > 133 µM
Bile salt export pump
  IC50: > 133 µM

## CS(=O)(=O)c1ccc(C2=C(c3ccccc3)C(=O)OC2)cc1 [ROFECOXIB]
[1]
  IC50: > 133 µM
[2]
  IC50: > 133 µM
[3]
  IC50: > 133 µM
Bile salt export pump
  IC50: > 133 µM

## CN(C)CCc1c[nH]c2ccc(C[C@H]3COC(=O)N3)cc12 [ZOLMITRIPTAN]
[1]
  IC50: > 133 µM
[2]
  IC50: > 133 µM
[3]
  IC50: > 133 µM
Bile salt export pump
  IC50: > 133 µM

## C[C@H]1CN(C[C@H](Cc2ccccc2)C(=O)NCC(=O)O)CC[C@@]1(C)c1cccc(O)c1 [ALVIMOPAN]
[1]
  IC50: > 133 µM
[2]
  IC50: > 133 µM
[3]
  IC50: > 133 µM
Bile salt export pump
  IC50: > 133 µM

## Clc1cccc(N2CCNCC2)c1 [CHLOROPHENYLPIPERAZINE]
[1]
  IC50: > 133 µM
[2]
  IC50: > 133 µM
[3]
  IC50: > 133 µM
Bile salt export pump
  IC50: > 133 µM

## O=C(O)c1ccccc1-c1c2ccc(=O)cc-2oc2cc(O)ccc12
[1]
  IC50: > 133 µM
[2]
  IC50: > 133 µM
[3]
  IC50: > 133 µM
Bile salt export pump
  IC50: > 133 µM

## O=P(O)(O)C(O)(Cn1ccnc1)P(=O)(O)O [ZOLEDRONIC ACID]
[1]
  IC50: > 133 µM
[2]
  IC50: > 133 µM
[3]
  IC50: > 133 µM
Bile salt export pump
  IC50: > 133 µM
